Assay results as given in paper PMC7970304, “The Effects of Apelin and Elabela Ligands on Apelin Receptor Distinct Signaling Profiles” (Frontiers in Pharmacology, 2021).

What was measured:
Type in all cases: cell-based
[1] = tested on: APJ (Apelin receptor); ERK1/2 phosphorylation; assay: ERK1/2 activation assay, Western blot; conditions: for Bias factor / Log (Bias): WB-ERK over Ca2+, reference Apelin-13; for Log (Bias): footnote a = statistically insignificant; for log (τ/KA) / Δlog (τ/KA): WB-ERK; for log (τ/KA): Black–Leff operational model; for Δlog (τ/KA): relative to Apelin-13
Procedure: HEK293 cells expressing APJ were spilt into 6-well plates at a density of 10^5 cells per well and cultured until reaching approximately 90% confluence. The cells were treated with different concentrations of peptide ligands (0.01–1,000 nM). The cells were washed twice with Phosphate-buffered saline (PBS) and lyzed in RIPA lysis buffer (50 mm Tris–HCl, pH 7.41, 50 mM NaCl, 1 mM EDTA, 10 mM MgCl2, 1 mM DTT, 1 mM PMSF, 1 μg/ml […], […]), 1.4 μg/ml […] and 0.5% (v/v) NP-40). After centrifugation at 14,000 rpm at 4°C for 30 min, the supernatant was collected and separated by 10% SDS-PAGE. Gel transfer takes about 60 min at 250 mA. The nitrocellulose membrane was sealed with 5% skim milk dissolved in 0.1% Triton X-100 of PBS. The primary ERK1/2 antibody was diluted with 5% bovine serum albumin (BSA) at 1:2,000, and the second antibody was diluted with 1:5,000. The ECL reagent was applied to the membrane. The films were scanned by Vanoscan Lide 700F scanner and analyzed by scion image software. The dose-response curve was fitted using the data detected at 5 min after stimulation.
(§1) The concentration-response data for the ligands in various assays were analyzed to determine the biases of the ligands for G protein dependent signaling or β-arrestin dependent signaling, according to a previously published method ([Kenakin et al., 2012]; [Hager et al., 2016]; [Hothersall et al., 2017]). Briefly, the concentration-response data for each ligand were fitted to the Black–Leff operation model to obtain the values of τ and K A, using the following equation: Response=[A]^nτ^nEm/[A]^nτ^n+([A]KA)^n where [A] is the concentration of the agonist, E m is the maximal response of the system, n is the transducer slope, and K A and τ describe the affinity and efficacy of the agonist, respectively. In the data fitting, the reparametrized form of the equation proposed by [Kenakin et al. (2012)] was used: Response=Em/1+exp{nln[1+exp(β1)/[A]]−nβ2} where β 1 and β 2 are the natural logarithm of K A and τ, respectively, and E m was set to 1. Thus, for each concentration-response curve, a non-linear regression was performed to fit the above equation to give β 1 and β 2 (as well as n). Log (τ/K A) values (“transduction coefficients”) for each ligand vs. each pathway were obtained. […] The ΔΔlog (τ/K A), or Log (Bias), which is the logarithm of the bias factor for a given pathway over a reference pathway (here, intracellular calcium release), was calculated for each ligand as Δlog (τ/K A)–Δlog (τ/K A)Calcium. The 95% confidence interval (CI) was expressed as the mean ± standard error; Log (Bias) values, whose 95% CI crosses 0, were considered statistically insignificant.
The data were analyzed using GraphPad Prism v5.0. All the data are presented as the mean ± SEM. Differences between groups were compared by one-way analysis of variants (ANOVA), followed by post-hoc tests (Tukey’s test), When p < 0.05, the difference was considered significant. All experiments were repeated at least four times. The dose-response curves were generated using non-linear fitting model log (agonist) vs. response (three-parameters), with Hill Slope held to 1, i.e., Y = Bottom + (Top-Bottom)/(1 + 10^(LogEC50-X)).
FIGURE 4 Changes of ERK1/2 phosphorylation in HEK293 cells with stable expression of APJ: (A–F) after 5-min stimulation by the six agonists in different concentrations (0.01–1,000 nM) (G and H) ERK was measured after 5 or 15 min stimulation with six peptides at a concentration of 100 nM. Levels of p-ERK, total ERK were determined by Western blot. The data represent means ± SEM of four independent experiments.

[2] = tested on: APJ–β-arrestin 1 interaction; assay: BRET recruitment of β-arrestin 1 to APJ; conditions: for log (τ/KA) / Δlog (τ/KA): APJ-β-arrestin1; for log (τ/KA): Black–Leff operational model; for Δlog (τ/KA): relative to Apelin-13; for Bias factor / Log (Bias): APJ-β-arrestin1 over Ca2+, reference Apelin-13
Procedure: (§2) To detect the potencies of different peptide ligands for APJ in living cells, real-time kinetic bioluminescence resonance energy transfer (BRET) assays were carried out as follows. HEK293 cells were grown to 80–90% confluence in 24-well plates and transiently transfected with various Rluc-, EYFP-, or Venus-tagged constructs ([Chen et al., 2014]; [Liu et al., 2016]). Approximately 36 h after transfection, the long-acting luciferase substrate EnduRen (E6481, Promega, Beijing Biotech Co., Ltd.) was added to each well at a final concentration of 60 μM and cells were incubated for 2 h at 37°C in a 5% CO2 incubator. BRET experiments were carried out using a Mithras LB941 plate reader (Berthold Technologies, Bad Wildbad, Germany) with three filters: a Rluc filter (400–475 nm), a Venus filter (515–575 nm) and an EGFP filter (500–550 nm) ([Liu et al., 2016]; [Ji et al., 2017]). The BRET ratio was calculated as the ratio of the emission at 535 ± 30 nm to that at 485 ± 20 nm. The results are expressed as the mBRET (mBRET = 1,000 × BRET ratio) ([Pfleger et al., 2006a]; [Pfleger et al., 2006b]). We use high glucose as a negative control group.
(§3) HEK293 cells were transiently co-transfected with the designated Rluc and GFP2 or Venus or EYFP-labeled constructs. Twenty-four hours after transfection, the cells were harvested in phenol red free medium containing 5% FCS in HEPES buffer and seeded in 96 well white microplate coated with poly-D-lysine. After 24 h, cells were washed twice in PBS and re-suspended in PBS containing 0.5 mM MgCl2 and 0.1% glucose. Coelenterazine h substrate was added at a final concentration of 5 μM in the total volume of 50 μL/well. Kinetic-response and dose-response curve of the recruitment of GRKs or β-arrestin 1 and β-arrestin 2 or AP2 to the APJ by six peptides measured by BRET. […] The BRET signals between receptor and GRKs/β-arrestin1 and 2/AP2 were recorded at 10 min (GRK2/5) or 15 min (β-arrestin1 and) or 30 min (AP2) after agonist stimulation. We use high glucose as a control group. BRET assays were performed as described previously ([Xue et al., 2018]). […] This signal is defined as the ligand induced BRET ratio.
as §1
(§4) The data were analyzed using GraphPad Prism v5.0. All the data are presented as the mean ± SEM.

[3] = tested on: β-arrestin 2–AP2 interaction induced by APJ; assay: BRET interaction of β-arrestin 2 and β2-adaptin (AP2) induced by APJ; conditions: for log (τ/KA) / Δlog (τ/KA): APJ-β-arrestin2-AP2; for log (τ/KA): Black–Leff operational model; for Δlog (τ/KA): relative to Apelin-13; for Bias factor / Log (Bias): APJ-β-arrestin2-AP2 over Ca2+, reference Apelin-13; for Log (Bias): footnote a = statistically insignificant
Procedure: as §2, §3, §1, §4

Row | Structure (SMILES) | ERK1/2 phosphorylation (in words) ([1]; 100 nM, 15 min) | bias over calcium release ([1]; ERK pathway) [fold] | Bias factor [1] | Log (Bias) [1] | log (τ/KA) [1] | Δlog (τ/KA) [1] | log (τ/KA) [2] | Δlog (τ/KA) [2] | Bias factor [2] | Log (Bias) [2] | log (τ/KA) [3] | Δlog (τ/KA) [3] | Bias factor [3] | Log (Bias) [3] | Log (Bias) ([2]; listed as ELA-32) | bias over calcium release ([2]; APJ–β-arrestin 1) | APJ–β-arrestin 1 BRET signal (in words) ([2]; dose-response, 15 min)
1 | CSCC[C@H](NC(=O)[C@@H]1CSSC[C@H](NC(=O)[C@H](CC(N)=O)NC(=O)[C@H](Cc2c[nH]cn2)NC(=O)[C@H](CCCCN)NC(=O)[C@H](CCCNC(=N)N)NC(=O)[C@@H](N)CC(C)C)C(=O)N[C@@H](CC(C)C)C(=O)N[C@@H](CCC(N)=O)C(=O)N[C@@H](CCCNC(=N)N)C(=O)N[C@@H](CCCNC(=N)N)C(=O)N1)C(=O)N1CCC[C@H]1C(=O)N[C@@H](CC(C)C)C(=O)N[C@@H](Cc1c[nH]cn1)C(=O)N[C@@H](CO)C(=O)N[C@@H](CCCNC(=N)N)C(=O)N[C@H](C(=O)N1CCC[C@H]1C(=O)N[C@@H](Cc1ccccc1)C(=O)N1CCC[C@H]1C(=O)O)C(C)C [Elabela-21] | significantly higher than the activation of ERK1/2 by the other ligands | 0.1 | 0.1 | −1.0 ± 0.3 | −2.5 ± 0.2 | −2.6 ± 0.2 | −1.9 ± 0.1 | 0.6 ± 0.1 | 146.2 | 2.2 ± 0.2 | −2.1 ± 0.4 | −1.9 ± 0.5 | 0.5 | −0.3 ± 0.6 ^a |  |  | 
2 | CSCC[C@H](NC(=O)[C@@H](NC(=O)[C@H](CC(C)C)NC(=O)[C@H](CC(N)=O)NC(=O)[C@@H](NC(=O)[C@@H]1CCCN1C(=O)[C@H](CCCNC(=N)N)NC(=O)[C@@H](N)CCC(N)=O)C(C)C)[C@@H](C)O)C(=O)N[C@@H](CCCNC(=N)N)C(=O)N[C@@H](CCCNC(=N)N)C(=O)N[C@@H](CCCCN)C(=O)N[C@@H](CC(C)C)C(=O)N[C@@H](CCCNC(=N)N)C(=O)N[C@@H](CCCCN)C(=O)N[C@@H](Cc1c[nH]cn1)C(=O)N[C@@H](CC(N)=O)C(=O)N[C@H]1CSSC[C@@H](C(=O)N[C@@H](CCSC)C(=O)N2CCC[C@H]2C(=O)N[C@@H](CC(C)C)C(=O)N[C@@H](Cc2c[nH]cn2)C(=O)N[C@@H](CO)C(=O)N[C@@H](CCCNC(=N)N)C(=O)N[C@H](C(=O)N2CCC[C@H]2C(=O)N[C@@H](Cc2ccccc2)C(=O)N2CCC[C@H]2C(=O)O)C(C)C)NC(=O)[C@H](CCCNC(=N)N)NC(=O)[C@H](CCCNC(=N)N)NC(=O)[C@H](CCC(N)=O)NC(=O)[C@H](CC(C)C)NC1=O [Elabela-32] |  |  | 3.0 | 0.5 ± 0.3 | −1.3 ± 0.2 | −1.4 ± 0.2 | −1.0 ± 0.1 | 1.4 ± 0.1 | 1978.4 | 3.3 | −2.0 ± 0.4 | −1.8 ± 0.5 | 1.1 | 0.0 ± 0.6 ^a | 3.3 ± 0.2 | > 1,500 fold | significantly higher than those induced by the other peptide ligands
